Data reported in US10414811B2, “Protease-resistant lipidated GLP-1 analogs” (MEDIMMUNE LIMITED, priority 2015, dated 2019).
Where two headings read alike, the source gives them in different places.

Tests used:
Assay type in all cases: cell-based
[1] = molecular target: T1, human GLP-1 receptor (GLP-1R) (Homo sapiens, UniProt P43220); test: cAMP assay, human GLP-1R cells
T1 construct: expressed in transfected cells
How it was run: (§1)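 Peptide-stimulated cAMP measured by two-step HTRF after a 30 min room-temperature incubation with receptor-expressing cells (hGLP-1R, hGIPR at 1×10^5 cells/ml; hGCGR at 2×10^5 cells/ml). Duplicate dilutions; EC50 from 4-parameter logistic fit of % Delta F.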

[2] = molecular target: T2, human glucagon receptor (GCGR) (Homo sapiens, UniProt P47871); test: cAMP assay, human GCGR cells; details: cAMP assay
T2 construct: expressed in transfected cells
How it was run: as §1

[3] = molecular target: T3, human glucose-dependent insulinotropic peptide receptor (GIPR) (Homo sapiens, UniProt P48546); test: cAMP assay, human GIPR cells; details: cAMP assay
T3 construct: expressed in transfected cells
T3 sequence (P48546 22-466): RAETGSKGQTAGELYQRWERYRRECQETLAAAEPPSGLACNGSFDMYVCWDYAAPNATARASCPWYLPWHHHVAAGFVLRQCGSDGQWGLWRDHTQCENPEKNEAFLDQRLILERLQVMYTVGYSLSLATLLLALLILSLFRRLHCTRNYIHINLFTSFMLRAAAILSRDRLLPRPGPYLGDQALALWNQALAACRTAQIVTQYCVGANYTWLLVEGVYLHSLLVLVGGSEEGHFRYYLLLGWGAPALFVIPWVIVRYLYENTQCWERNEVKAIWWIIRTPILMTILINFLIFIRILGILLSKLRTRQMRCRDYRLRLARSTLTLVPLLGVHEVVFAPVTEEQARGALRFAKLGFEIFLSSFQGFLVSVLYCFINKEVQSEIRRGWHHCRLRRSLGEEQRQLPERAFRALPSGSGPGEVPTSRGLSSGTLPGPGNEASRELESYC
How it was run: as §1

[4] = cAMP assay, first determination (n1), read-out: Primary assay EC50 GLP-1R n1
[5] = cAMP assay, second determination (n2), read-out: Primary assay EC50 GLP-1R n2
[6] = mean of n1 and n2, read-out: Mean pM GLP-1R
[7] = first determination (n1), read-out: Primary assay EC50 Gluc-R (n1)
[8] = second determination (n2), read-out: Primary assay EC50 Gluc-R (n2)
[9] = first determination (n1), read-out: Primary assay EC50 GIP-R (n1)
[10] = second determination (n2), read-out: Primary assay EC50 GIP-R (n2)

T2 sequence (P47871 26-477): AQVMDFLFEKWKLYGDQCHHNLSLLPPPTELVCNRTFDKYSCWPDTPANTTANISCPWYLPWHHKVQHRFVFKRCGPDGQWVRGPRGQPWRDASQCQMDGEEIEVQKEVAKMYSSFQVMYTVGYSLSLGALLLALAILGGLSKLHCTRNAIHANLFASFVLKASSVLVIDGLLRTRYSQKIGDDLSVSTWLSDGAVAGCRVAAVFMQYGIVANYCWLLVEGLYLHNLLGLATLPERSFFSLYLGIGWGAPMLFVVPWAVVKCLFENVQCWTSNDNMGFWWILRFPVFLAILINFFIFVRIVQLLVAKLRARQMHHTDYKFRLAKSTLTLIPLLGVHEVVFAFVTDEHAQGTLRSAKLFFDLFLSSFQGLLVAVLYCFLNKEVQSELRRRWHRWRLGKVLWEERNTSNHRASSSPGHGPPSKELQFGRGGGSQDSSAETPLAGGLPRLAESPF
T1 sequence (P43220 24-463): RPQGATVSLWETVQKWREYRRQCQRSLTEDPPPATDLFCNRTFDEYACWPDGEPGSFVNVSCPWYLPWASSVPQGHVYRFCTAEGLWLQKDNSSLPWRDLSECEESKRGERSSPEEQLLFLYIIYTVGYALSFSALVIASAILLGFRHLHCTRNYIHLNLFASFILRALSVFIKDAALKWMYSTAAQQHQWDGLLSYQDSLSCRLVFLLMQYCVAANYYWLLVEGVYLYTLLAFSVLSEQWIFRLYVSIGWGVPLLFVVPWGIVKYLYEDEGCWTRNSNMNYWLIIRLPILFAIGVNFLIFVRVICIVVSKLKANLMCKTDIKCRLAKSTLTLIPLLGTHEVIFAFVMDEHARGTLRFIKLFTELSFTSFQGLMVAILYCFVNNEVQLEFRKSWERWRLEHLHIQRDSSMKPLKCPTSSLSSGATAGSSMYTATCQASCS

SMILES	EC50 [1, 4]	EC50 [1, 5]	EC50 [1, 6]	EC50 [2, 7]	EC50 [2, 8]	EC50 [3, 9]	EC50 [3, 10]
CCCCCCCCCCCCCCCCCC(=O)NCCCCCC(=O)NCCCCCC(=O)NCCCC[C@H](NC(=O)[C@H](C)NC(=O)[C@H](C)NC(=O)[C@H](CCC(=O)O)NC(=O)CNC(=O)[C@H](CCC(=O)O)NC(=O)[C@H](CC(C)C)NC(=O)[C@](C)(Cc1ccccc1)NC(=O)[C@H](CO)NC(=O)[C@](C)(CO)NC(=O)[C@@H](NC(=O)[C@H](CC(=O)O)NC(=O)[C@H](CO)NC(=O)[C@@H](NC(=O)[C@](C)(Cc1ccccc1)NC(=O)[C@H](CO)NC(=O)CNC(=O)[C@H](CCC(=O)O)NC(=O)C(C)(C)NC(=O)[C@@H](N)Cc1c[nH]cn1)[C@@H](C)O)C(C)C)C(=O)N[C@@H](CCC(=O)O)C(=O)N[C@@](C)(Cc1ccccc1)C(=O)N[C@H](C(=O)N[C@@H](C)C(=O)N[C@@](C)(Cc1ccccc1)C(=O)N[C@H](C(=O)N[C@H](C(=O)N[C@@](C)(CCCCN)C(=O)NCC(=O)NCC(N)=O)C(C)C)C(C)C)[C@@H](C)CC [compound 150]	28 pM	22 pM	25.4 pM	≥ 27 nM	≥ 27 nM	≥ 27 nM	≥ 27 nM
CCCCCCCCCCCCCCCCCC(=O)NCCCCCC(=O)NCCCCCC(=O)NCCCCCC(=O)NCCCC[C@H](NC(=O)[C@H](C)NC(=O)[C@H](C)NC(=O)[C@H](CCC(=O)O)NC(=O)CNC(=O)[C@H](CCC(=O)O)NC(=O)[C@H](CC(C)C)NC(=O)[C@](C)(Cc1ccccc1)NC(=O)[C@H](CO)NC(=O)[C@](C)(CO)NC(=O)[C@@H](NC(=O)[C@H](CC(=O)O)NC(=O)[C@H](CO)NC(=O)[C@@H](NC(=O)[C@](C)(Cc1ccccc1)NC(=O)[C@H](CO)NC(=O)CNC(=O)[C@H](CCC(=O)O)NC(=O)C(C)(C)NC(=O)[C@@H](N)Cc1c[nH]cn1)[C@@H](C)O)C(C)C)C(=O)N[C@@H](CCC(=O)O)C(=O)N[C@@](C)(Cc1ccccc1)C(=O)N[C@H](C(=O)N[C@@H](C)C(=O)N[C@@](C)(Cc1ccccc1)C(=O)N[C@H](C(=O)N[C@H](C(=O)N[C@@](C)(CCCCN)C(=O)NCC(=O)NCC(N)=O)C(C)C)C(C)C)[C@@H](C)CC [compound 151]	22 pM	15 pM	18.2 pM	≥ 26 nM	≥ 26 nM	≥ 26 nM	≥ 26 nM
CCCCCCCCCCCCCCCCCC(=O)NCCOCCOCC(=O)NCCCC[C@H](NC(=O)[C@H](C)NC(=O)[C@H](C)NC(=O)[C@H](CCC(=O)O)NC(=O)CNC(=O)[C@H](CCC(=O)O)NC(=O)[C@H](CC(C)C)NC(=O)[C@](C)(Cc1ccccc1)NC(=O)[C@H](CO)NC(=O)[C@](C)(CO)NC(=O)[C@@H](NC(=O)[C@H](CC(=O)O)NC(=O)[C@H](CO)NC(=O)[C@@H](NC(=O)[C@](C)(Cc1ccccc1)NC(=O)[C@H](CO)NC(=O)CNC(=O)[C@H](CCC(=O)O)NC(=O)C(C)(C)NC(=O)[C@@H](N)Cc1c[nH]cn1)[C@@H](C)O)C(C)C)C(=O)N[C@@H](CCC(=O)O)C(=O)N[C@@](C)(Cc1ccccc1)C(=O)N[C@H](C(=O)N[C@@H](C)C(=O)N[C@@](C)(Cc1ccccc1)C(=O)N[C@H](C(=O)N[C@H](C(=O)N[C@@](C)(CCCCN)C(=O)NCC(=O)NCC(N)=O)C(C)C)C(C)C)[C@@H](C)CC [compound 152]	39 pM	31 pM	34.7 pM	≥ 28 nM	≥ 28 nM	≥ 28 nM	≥ 28 nM
CC[C@H](C)[C@H](NC(=O)[C@](C)(Cc1ccccc1)NC(=O)[C@H](CCC(=O)O)NC(=O)[C@H](CCCCNC(=O)CC[C@H](NC(=O)CCCCCCCCCCCCCCCCC(=O)O)C(=O)O)NC(=O)[C@H](C)NC(=O)[C@H](C)NC(=O)[C@H](CCC(=O)O)NC(=O)CNC(=O)[C@H](CCC(=O)O)NC(=O)[C@H](CC(C)C)NC(=O)[C@](C)(Cc1ccccc1)NC(=O)[C@H](CO)NC(=O)[C@](C)(CO)NC(=O)[C@@H](NC(=O)[C@H](CC(=O)O)NC(=O)[C@H](CO)NC(=O)[C@@H](NC(=O)[C@](C)(Cc1ccccc1)NC(=O)[C@H](CO)NC(=O)CNC(=O)[C@H](CCC(=O)O)NC(=O)C(C)(C)NC(=O)[C@@H](N)Cc1c[nH]cn1)[C@@H](C)O)C(C)C)C(=O)N[C@@H](C)C(=O)N[C@@](C)(Cc1ccccc1)C(=O)N[C@H](C(=O)N[C@H](C(=O)N[C@@](C)(CCCCN)C(=O)NCC(=O)NCC(N)=O)C(C)C)C(C)C [compound 155]	290 pM	190 pM	238 pM	≥ 28 nM	≥ 28 nM	≥ 28 nM	≥ 28 nM
CC[C@H](C)[C@H](NC(=O)[C@](C)(Cc1ccccc1)NC(=O)[C@H](CCC(=O)O)NC(=O)[C@H](CCCCNC(=O)CC[C@H](NC(=O)CC[C@H](NC(=O)CC[C@H](NC(=O)CCCCCCCCCCCCCCCCC(=O)O)C(=O)O)C(=O)O)C(=O)O)NC(=O)[C@H](C)NC(=O)[C@H](C)NC(=O)[C@H](CCC(=O)O)NC(=O)CNC(=O)[C@H](CCC(=O)O)NC(=O)[C@H](CC(C)C)NC(=O)[C@](C)(Cc1ccccc1)NC(=O)[C@H](CO)NC(=O)[C@](C)(CO)NC(=O)[C@@H](NC(=O)[C@H](CC(=O)O)NC(=O)[C@H](CO)NC(=O)[C@@H](NC(=O)[C@](C)(Cc1ccccc1)NC(=O)[C@H](CO)NC(=O)CNC(=O)[C@H](CCC(=O)O)NC(=O)C(C)(C)NC(=O)[C@@H](N)Cc1c[nH]cn1)[C@@H](C)O)C(C)C)C(=O)N[C@@H](C)C(=O)N[C@@](C)(Cc1ccccc1)C(=O)N[C@H](C(=O)N[C@H](C(=O)N[C@@](C)(CCCCN)C(=O)NCC(=O)NCC(N)=O)C(C)C)C(C)C [compound 157]	240 pM			≥ 26 nM	≥ 26 nM	≥ 26 nM	≥ 26 nM
CC[C@H](C)[C@H](NC(=O)[C@](C)(Cc1ccccc1)NC(=O)[C@H](CCC(=O)O)NC(=O)[C@H](CCCCNC(=O)CCCCCNC(=O)CCCCCNC(=O)CCCCCCCCCCCCCCCCC(=O)O)NC(=O)[C@H](C)NC(=O)[C@H](C)NC(=O)[C@H](CCC(=O)O)NC(=O)CNC(=O)[C@H](CCC(=O)O)NC(=O)[C@H](CC(C)C)NC(=O)[C@](C)(Cc1ccccc1)NC(=O)[C@H](CO)NC(=O)[C@](C)(CO)NC(=O)[C@@H](NC(=O)[C@H](CC(=O)O)NC(=O)[C@H](CO)NC(=O)[C@@H](NC(=O)[C@](C)(Cc1ccccc1)NC(=O)[C@H](CO)NC(=O)CNC(=O)[C@H](CCC(=O)O)NC(=O)C(C)(C)NC(=O)[C@@H](N)Cc1c[nH]cn1)[C@@H](C)O)C(C)C)C(=O)N[C@@H](C)C(=O)N[C@@](C)(Cc1ccccc1)C(=O)N[C@H](C(=O)N[C@H](C(=O)N[C@@](C)(CCCCN)C(=O)NCC(=O)NCC(N)=O)C(C)C)C(C)C [compound 159]	280 pM	230 pM	254 pM	≥ 27 nM	≥ 27 nM	≥ 27 nM	≥ 27 nM
CC[C@H](C)[C@H](NC(=O)[C@](C)(Cc1ccccc1)NC(=O)[C@H](CCC(=O)O)NC(=O)[C@H](CCCCNC(=O)CCCCCNC(=O)CCCCCNC(=O)CCCCCNC(=O)CCCCCCCCCCCCCCCCC(=O)O)NC(=O)[C@H](C)NC(=O)[C@H](C)NC(=O)[C@H](CCC(=O)O)NC(=O)CNC(=O)[C@H](CCC(=O)O)NC(=O)[C@H](CC(C)C)NC(=O)[C@](C)(Cc1ccccc1)NC(=O)[C@H](CO)NC(=O)[C@](C)(CO)NC(=O)[C@@H](NC(=O)[C@H](CC(=O)O)NC(=O)[C@H](CO)NC(=O)[C@@H](NC(=O)[C@](C)(Cc1ccccc1)NC(=O)[C@H](CO)NC(=O)CNC(=O)[C@H](CCC(=O)O)NC(=O)C(C)(C)NC(=O)[C@@H](N)Cc1c[nH]cn1)[C@@H](C)O)C(C)C)C(=O)N[C@@H](C)C(=O)N[C@@](C)(Cc1ccccc1)C(=O)N[C@H](C(=O)N[C@H](C(=O)N[C@@](C)(CCCCN)C(=O)NCC(=O)NCC(N)=O)C(C)C)C(C)C [compound 160]	390 pM	320 pM	351 pM	≥ 26 nM	≥ 26 nM	≥ 26 nM	≥ 26 nM
CC[C@H](C)[C@H](NC(=O)[C@](C)(Cc1ccccc1)NC(=O)[C@H](CCC(=O)O)NC(=O)[C@H](CCCCNC(=O)COCCOCCNC(=O)CCCCCCCCCCCCCCCCC(=O)O)NC(=O)[C@H](C)NC(=O)[C@H](C)NC(=O)[C@H](CCC(=O)O)NC(=O)CNC(=O)[C@H](CCC(=O)O)NC(=O)[C@H](CC(C)C)NC(=O)[C@](C)(Cc1ccccc1)NC(=O)[C@H](CO)NC(=O)[C@](C)(CO)NC(=O)[C@@H](NC(=O)[C@H](CC(=O)O)NC(=O)[C@H](CO)NC(=O)[C@@H](NC(=O)[C@](C)(Cc1ccccc1)NC(=O)[C@H](CO)NC(=O)CNC(=O)[C@H](CCC(=O)O)NC(=O)C(C)(C)NC(=O)[C@@H](N)Cc1c[nH]cn1)[C@@H](C)O)C(C)C)C(=O)N[C@@H](C)C(=O)N[C@@](C)(Cc1ccccc1)C(=O)N[C@H](C(=O)N[C@H](C(=O)N[C@@](C)(CCCCN)C(=O)NCC(=O)NCC(N)=O)C(C)C)C(C)C [compound 161]	160 pM	62 pM	112 pM	≥ 27 nM	≥ 27 nM	≥ 27 nM	≥ 27 nM
